According to PMC11643225, “Novel Benzimidazole-Endowed Chalcones as α-Glucosidase and α-Amylase Inhibitors: An Insight into Structural and Computational Studies” (Molecules, 2024):
Entries after “also recorded” stand apart in the source; their conditions may differ.

Columns and labels:
yeast α-glucosidase = yeast α-glucosidase inhibition assay (pNPG substrate); type: biochemical; conditions: yeast enzyme, 37 °C
Description: (§1) The in vitro enzyme inhibition assays for the two enzymes, i.e., α-glucosidase and α-amylase, were performed according to the previous studies.
The yeast α-glucosidase inhibition assay was performed using pNPG as substrate. An amount of 100 µL of enzyme was then added to the mixture, and the reaction was incubated at 37 °C for 10 min. After adding 0.5 mM pNPG solution, the reaction continued at 37 °C for 20 min. The enzyme activity was determined by measuring the absorbance of the liberated p-nitrophenol at 405 nm using a microplate spectrophotometer. The results were expressed as a percentage of α-glucosidase inhibition, calculated using the formula “Inhibition (%) = (A control − A sample)/A control × 100”. The final results of the enzyme inhibition assay are represented as IC50 values which refers to the concentration required to block 50% of α-glucosidase activity under the test conditions.

[1] = biological target: T1, type-VI B porcine pancreatic α-amylase (Sus scrofa, UniProt P00690); test: α-amylase inhibition assay (starch substrate, DNS reagent); type: biochemical; conditions: porcine pancreatic enzyme, 25 °C, read-out: IC50 (mean ± SD) α-Amylase (converted)
T1 construct: performed using type-VI B porcine pancreatic α-amylase, with starch as a substrate; from tissue; host or cells: porcine pancreas
T1 sequence (P00690 16-511): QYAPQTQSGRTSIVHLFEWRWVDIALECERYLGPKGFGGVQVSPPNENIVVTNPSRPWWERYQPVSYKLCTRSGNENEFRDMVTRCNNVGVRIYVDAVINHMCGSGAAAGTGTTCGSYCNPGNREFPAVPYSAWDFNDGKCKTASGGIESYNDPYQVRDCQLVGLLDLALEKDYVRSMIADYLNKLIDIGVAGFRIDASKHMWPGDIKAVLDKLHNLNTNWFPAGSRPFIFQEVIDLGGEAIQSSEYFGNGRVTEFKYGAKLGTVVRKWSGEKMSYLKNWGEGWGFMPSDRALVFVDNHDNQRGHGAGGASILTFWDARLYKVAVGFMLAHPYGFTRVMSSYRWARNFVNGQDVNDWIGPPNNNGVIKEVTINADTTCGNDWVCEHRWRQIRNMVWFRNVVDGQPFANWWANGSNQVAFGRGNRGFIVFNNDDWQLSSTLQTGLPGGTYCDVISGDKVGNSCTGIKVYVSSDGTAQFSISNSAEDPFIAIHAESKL
Description: as §1
The α-amylase inhibition activity was performed using type-VI B porcine pancreatic α-amylase, with starch as a substrate. The enzyme was dissolved in sodium phosphate buffer and the test compound was added at different concentrations. […] The reaction was terminated by adding a DNS reagent and kept in a boiling water bath for 5 min. The resulting mixture was diluted and absorbance was measured at 540 nm using a microplate spectrophotometer.

HEK293 cells = type: cell-based; conditions: for cytotoxicity against HEK293 cell lines (in words): MTT, 48 h, 250, 500 and 1000 µg/mL, even at the highest concentration (1000 µg/mL)
Description: The Human Embryonic Kidney (HEK-293) cell lines were cultured in Dulbecco’s Modified Eagle Medium (DMEM) supplemented with 10% fetal bovine serum (FBS). The cells were maintained at 37 °C in a humidified atmosphere of 5% CO2. The adherent cells were grown to 70–80% confluency and then harvested by trypsinization (0.25%). The test compounds were dissolved in DMSO and used for all the experiments. DMSO (0.1%) was used as vehicle control and cells cultured in a complete medium without compound served as control.
Briefly, 5 × 10^3 cells (HEK293 cells) were seeded and allowed to adhere overnight. […] Post 48 h, the cells were exposed to MTT (5 mg/mL in phosphate-buffered saline). The formazan crystals were dissolved in DMSO and the absorption was measured at 570 nm using a microplate reader (Tecan Spark, Switzerland). The percentage viability of the cells was determined.

SMILES	IC50 (mean ± SD) α-Glucosidase (yeast α-glucosidase)	IC50 [1]	melting point	cytotoxicity against HEK293 cell lines (in words) (HEK293 cells)	cell death (HEK293 cells; HEK293, MTT, 25 µg/mL)
COc1cc(-c2nc3cc(C(=O)/C=C/c4ccccc4Cl)ccc3n2C)cc(OC)c1OC [Compound 7g]	29.28 ± 0.35 g µg/mL	61.7 µM	183 to 184 °C	–	–
COc1ccc(/C=C/C(=O)c2ccc3c(c2)nc(-c2cc(OC)c(OC)c(OC)c2)n3C)cc1 [Compound 7j]	27.21 ± 0.36 e µg/mL	85.6 µM	142 to 144 °C	–	–
COc1ccc(-c2nc3cc(C(=O)/C=C/c4ccccc4Cl)ccc3n2C)cc1OC [Compound 7a]	30.23 ± 0.14 µg·h/mL	92.7 µM	148 to 150 °C	–	–
COc1ccc(-c2nc3cc(C(=O)/C=C/c4ccc(C)cc4)ccc3n2C)cc1OC [Compound 7b]	32.10 ± 0.96 i µg/mL	81 µM	–	negligible cytotoxicity	–
COc1cc(-c2nc3cc(C(=O)/C=C/c4ccc(C)cc4)ccc3n2C)cc(OC)c1OC [Compound 7h]	36.22 ± 0.58 l µg/mL	68.9 µM	168 to 170 °C	–	–
COc1ccc(-c2nc3cc(C(=O)/C=C/c4cc(OC)c(OC)c(OC)c4)ccc3n2C)cc1OC [Compound 7f]	28.75 ± 0.12 f µg/mL	76.4 µM	127 to 129 °C	–	–
COc1ccc(/C=C/C(=O)c2ccc3c(c2)nc(-c2cc(OC)c(OC)c(OC)c2)n3C)cc1OC [Compound 7k]	29.30 ± 0.21 g µg/mL	84.4 µM	137 to 139 °C	–	–
COc1ccc(/C=C/C(=O)c2ccc3c(c2)nc(-c2ccc(OC)c(OC)c2)n3C)cc1OC [Compound 7e]	23.88 ± 0.55 b µg/mL	75.1 µM	–	negligible cytotoxicity	–
COc1ccccc1/C=C/C(=O)c1ccc2c(c1)nc(-c1ccc(OC)c(OC)c1)n2C [Compound 7c]	25.21 ± 0.13 c µg/mL	91.9 µM	159 to 161 °C	–	–
COc1cc(/C=C/C(=O)c2ccc3c(c2)nc(-c2cc(OC)c(OC)c(OC)c2)n3C)cc(OC)c1OC [Compound 7l, (E)-1-(1-methyl-2-(3,4,5-trimethoxyphenyl)-1H-benzo[d]imidazol-5-yl)-3-(3,4,5-trimethoxyphenyl)prop-2-en-1-one]	22.45 ± 0.36 a µg/mL	39.5 µM	–	negligible cytotoxicity; also recorded: without exerting toxicity	–
COc1ccc(/C=C/C(=O)c2ccc3c(c2)nc(-c2ccc(OC)c(OC)c2)n3C)cc1 [Compound 7d]	631.7 ± 12.5 µg·h/mL	85 µM	98 to 100 °C	–	–
CO[C@@]12[C@H](COC(N)=O)C3=C(C(=O)C(C)=C(N)C3=O)N1C[C@@H]1N[C@@H]12 [Mitomycin, reference compound]	–	–	–	–	around 60%
COc1ccccc1/C=C/C(=O)c1ccc2c(c1)nc(-c1cc(OC)c(OC)c(OC)c1)n2C [Compound 7i]	33.20 ± 0.60 J·µg/mL	52.8 µM	176 to 178 °C	–	–
